Patent US6420395B1, “Azacyclooctane and heptane derivatives, their preparation and use in therapy” (Neurosearch A/S, priority 1997, dated 2002)
Counter-ions that a name gives are not always drawn. Like-named read-outs stand apart in the source and are kept apart here.

Legend:
[1] = target: nicotinic ACh receptors comprised of α4 and β2 subunits (3H-cytisine binding site) (Rattus norvegicus, UniProt P09483+P12390); experiment: In vitro inhibition of 3H-cytisine binding
Procedure: In vitro inhibition of ^3H-cytisine binding
The predominant subtype with high affinity for nicotine is comprised of α4 and β2 subunits. nAChRs of the latter type can selectively be labelled by the nicotine agonist ^3H-cytisine.
Preparations are performed at 0-4° C. unless otherwise indicated. […] The homogenate is centrifuged at 27,000×g for 10 min. The supernatant is discarded and the pellet is resuspended in fresh buffer and centrifuged a second time. The final pellet is resuspended in fresh buffer (35 ml per g of original tissue) and used for binding assays.
Aliquots of 500 μl homogenate are added to 25 μl of test solution and 25 μl of ^3H-cytisine (1 nM, final concentration), mixed and incubated for 90 min at 2° C. Non-specific binding is determined using (−)-nicotne (100 μM, final concentration). After incubation the samples are added 5 ml of ice-cold buffer and poured directly onto Whatman GF/C glass fibre filters under suction and immediately washed with 2×5 ml ice-cold buffer. The amount of radioactivity on the filters is determined by conventional liquid scintillation counting. Specific binding is total binding minus non-specific binding.

[2] = target: nAChR formed by the α7 subunit (3H-α-bungarotoxin binding site) (Rattus norvegicus, UniProt Q05941); experiment: biochemical
Sequence of nAChR formed by the α7 subunit (3H-α-bungarotoxin binding site) (Q05941 23-502): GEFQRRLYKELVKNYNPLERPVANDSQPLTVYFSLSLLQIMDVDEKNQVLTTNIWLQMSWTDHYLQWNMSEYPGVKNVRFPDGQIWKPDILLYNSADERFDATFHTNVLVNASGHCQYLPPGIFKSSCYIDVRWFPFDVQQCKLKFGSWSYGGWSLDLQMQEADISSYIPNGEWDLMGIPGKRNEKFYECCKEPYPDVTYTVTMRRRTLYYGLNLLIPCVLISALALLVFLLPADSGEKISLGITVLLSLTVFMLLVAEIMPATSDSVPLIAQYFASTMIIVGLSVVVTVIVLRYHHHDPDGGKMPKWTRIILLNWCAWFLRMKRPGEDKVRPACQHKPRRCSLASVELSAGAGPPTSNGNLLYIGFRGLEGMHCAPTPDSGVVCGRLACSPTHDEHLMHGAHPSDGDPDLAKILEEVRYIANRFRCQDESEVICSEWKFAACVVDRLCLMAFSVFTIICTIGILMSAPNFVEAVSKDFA

[3] = approximate potency relative to morphine; cited from earlier work
[4] = read-out: 3H-α-bungarotoxin IC50
[5] = rat cerebral cortex homogenate, 1 nM 3H-cytisine, 90 min at 2° C., read-out: 3H-cytisine IC50

Sequence of nicotinic ACh receptors comprised of α4 and β2 subunits (3H-cytisine binding site) (P09483 31-630): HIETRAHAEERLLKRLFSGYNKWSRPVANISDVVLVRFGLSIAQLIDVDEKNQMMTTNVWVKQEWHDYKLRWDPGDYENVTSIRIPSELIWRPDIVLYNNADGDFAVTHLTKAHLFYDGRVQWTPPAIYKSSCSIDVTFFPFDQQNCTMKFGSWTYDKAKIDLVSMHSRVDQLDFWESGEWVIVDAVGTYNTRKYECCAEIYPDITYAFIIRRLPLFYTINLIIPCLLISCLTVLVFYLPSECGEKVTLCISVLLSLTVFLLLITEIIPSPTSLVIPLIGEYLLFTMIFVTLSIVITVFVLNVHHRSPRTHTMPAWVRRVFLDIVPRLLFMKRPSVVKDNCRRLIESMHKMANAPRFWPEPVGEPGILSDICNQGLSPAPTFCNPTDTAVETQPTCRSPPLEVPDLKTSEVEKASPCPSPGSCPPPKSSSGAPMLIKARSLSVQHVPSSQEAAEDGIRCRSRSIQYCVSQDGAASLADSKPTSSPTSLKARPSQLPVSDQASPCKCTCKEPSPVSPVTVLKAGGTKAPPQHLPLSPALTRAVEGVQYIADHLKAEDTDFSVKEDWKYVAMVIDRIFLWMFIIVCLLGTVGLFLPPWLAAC
Sequence of nicotinic ACh receptors comprised of α4 and β2 subunits (3H-cytisine binding site) (P12390 25-500): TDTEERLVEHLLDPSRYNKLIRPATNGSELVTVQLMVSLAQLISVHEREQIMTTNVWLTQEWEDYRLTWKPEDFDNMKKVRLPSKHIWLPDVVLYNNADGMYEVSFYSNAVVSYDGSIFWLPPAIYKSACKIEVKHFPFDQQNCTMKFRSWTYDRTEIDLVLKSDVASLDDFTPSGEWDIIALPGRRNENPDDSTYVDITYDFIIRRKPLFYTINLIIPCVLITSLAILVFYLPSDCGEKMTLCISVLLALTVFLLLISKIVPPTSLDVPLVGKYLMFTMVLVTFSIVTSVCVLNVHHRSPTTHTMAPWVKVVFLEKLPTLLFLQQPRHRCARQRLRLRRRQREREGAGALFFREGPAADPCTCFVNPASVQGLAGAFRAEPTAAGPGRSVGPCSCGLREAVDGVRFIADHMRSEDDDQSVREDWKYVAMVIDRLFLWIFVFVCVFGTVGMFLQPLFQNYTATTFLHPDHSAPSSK

c1cncc(C2CCCCCCN2)c1 (racemic) (as salt: fumaric acid salt) [Compound 1a, (R,S)-1-H-2-(3-pyridyl)azacyclooctane fumaric acid salt]
melting point: 141 to 142 °C

c1ccc2ncc(C3CCCCCCN3)cc2c1 (racemic) (as salt: fumaric acid salt) [Compound 3a, (R,S)-1-H-2-(3-quinolinyl)azacyclooctane fumaric acid salt]
melting point: 172 to 174 °C

CCSc1cncc(C2CCCCCN2)c1 (racemic) (as salt: fumaric acid salt) [Compound 5a, (R,S)-1-H-2-(5-thioethyl-3-pyridyl)azacycloheptane fumaric acid salt]
melting point: 159 to 161 °C

CCSc1cncc(C2CCCCCCN2C)c1 (racemic) (as salt: fumaric acid salt) [Compound 5b, (R,S)-1-Methyl-2-(5-thioethyl-3-pyridyl)azacyclooctane fumaric acid salt]
melting point: 143.5 to 145.5 °C

c1cncc(C2CCCCCCN2)c1 (racemic) [Compound 1a, (R,S)-1-H-2-(3-pyridyl)azacyclooctane fumaric acid salt]
IC50 [1]: 200 nM
IC50 [2, 4]: 2000 nM

CN1CCCCCCC1c1cccnc1 (racemic) [Compound 1b, (R,S)-1-Methyl-2-(3-pyridyl)azacyclooctane]
IC50 [1]: 560 nM
IC50 [2, 4]: 67000 nM

c1ccc2ncc(C3CCCCCCN3)cc2c1 (racemic) [Compound 3a, (R,S)-1-H-2-(3-quinolinyl)azacyclooctane fumaric acid salt]
IC50 [1, 5]: 1300 nM
IC50 [2]: > 30000 nM

CCSc1cncc(C2CCCCCN2)c1 (racemic) [Compound 5a, (R,S)-1-H-2-(5-thioethyl-3-pyridyl)azacycloheptane fumaric acid salt]
IC50 [1, 5]: 4300 nM
IC50 [2]: > 30000 nM

CCSc1cncc(C2CCCCCCN2C)c1 (racemic) [Compound 5b, (R,S)-1-Methyl-2-(5-thioethyl-3-pyridyl)azacyclooctane fumaric acid salt]
IC50 [1, 5]: 1950 nM

CCSc1cncc(C2CCCCCCN2)c1 (racemic) [Compound 6a, (R,S)-1-H-2-(5-thioethyl-3-pyridyl)azacyclooctane]
IC50 [1, 5]: 1000 nM

c1cncc(C2=NCCCCCC2)c1 [Compound 1c, 2-(3-Pyridyl)azacyclooct-1-ene]
IC50 [1]: 59 nM
IC50 [2, 4]: 1400 nM

Clc1ccc(C2CC3CCC2N3)cn1 (centres unmarked) [Epibatidine]
analgesic potency, times that of morphine [3]: ~500 times
